Source: US20080050387A1, “Non-Androgen Dependent Roles for Androgen Receptor and Non-Androgen Related Inhibitors of Androgen Receptor” (priority 2003, published 2008)

Key:
AR N/C interaction = assay: Reconstituted AR transcription assay (AR N/C interaction) in PC-3 cells; type: cell-based, human; settings: 10 nM DHT, MMTV-LUC
Procedure: (§1) PC-3, CWR22R, and LNCaP cell lines were maintained in […] supplemented with 10% fetal calf serum (FCS). Transient transfection for luciferase assays was carried out in 24-well plates (5×10^4 cells per well) using SuperFect as described previously (Lin, H. K., et al., Embo J 21:4037-48 (2002)). DNA mixtures in transfection assay were indicated in each figure. The total amount of transfected DNA was kept constant (1 μg) by adding the corresponding amounts of empty expression plasmids. After transfection, cells were cultured in RPMI-1600 supplemented with 5% charcoal-stripped FCS in the presence or absence of 10 nM dihydrotestosterone (DHT) for 18 h. Luciferase assays were performed as previously described (Yang, L., et al., J Biol Chem 278:16820-7 (2003)). In Western blotting assays, CWR22R or LNCaP cells were transfected by electroporation using 5×10^6 cells/0.4 ml of RPMI medium containing 2% FCS plus 9 μg of the indicated plasmids. 1 μg of EGFP expression vector was used for transfection efficiency. Electroporation was performed at 250 V and 950 μF using Gene Pulser II (Bio-Rad)

AR [1] = assay: Mammalian two-hybrid assay hRad9 / AR in PC-3 cells; type: cell-based, human; settings: 10 nM DHT, positive control
Procedure: as §1
Target sequence in this assay (P10275 with tags, fused parts or gaps DEL79-80/DUP473-473): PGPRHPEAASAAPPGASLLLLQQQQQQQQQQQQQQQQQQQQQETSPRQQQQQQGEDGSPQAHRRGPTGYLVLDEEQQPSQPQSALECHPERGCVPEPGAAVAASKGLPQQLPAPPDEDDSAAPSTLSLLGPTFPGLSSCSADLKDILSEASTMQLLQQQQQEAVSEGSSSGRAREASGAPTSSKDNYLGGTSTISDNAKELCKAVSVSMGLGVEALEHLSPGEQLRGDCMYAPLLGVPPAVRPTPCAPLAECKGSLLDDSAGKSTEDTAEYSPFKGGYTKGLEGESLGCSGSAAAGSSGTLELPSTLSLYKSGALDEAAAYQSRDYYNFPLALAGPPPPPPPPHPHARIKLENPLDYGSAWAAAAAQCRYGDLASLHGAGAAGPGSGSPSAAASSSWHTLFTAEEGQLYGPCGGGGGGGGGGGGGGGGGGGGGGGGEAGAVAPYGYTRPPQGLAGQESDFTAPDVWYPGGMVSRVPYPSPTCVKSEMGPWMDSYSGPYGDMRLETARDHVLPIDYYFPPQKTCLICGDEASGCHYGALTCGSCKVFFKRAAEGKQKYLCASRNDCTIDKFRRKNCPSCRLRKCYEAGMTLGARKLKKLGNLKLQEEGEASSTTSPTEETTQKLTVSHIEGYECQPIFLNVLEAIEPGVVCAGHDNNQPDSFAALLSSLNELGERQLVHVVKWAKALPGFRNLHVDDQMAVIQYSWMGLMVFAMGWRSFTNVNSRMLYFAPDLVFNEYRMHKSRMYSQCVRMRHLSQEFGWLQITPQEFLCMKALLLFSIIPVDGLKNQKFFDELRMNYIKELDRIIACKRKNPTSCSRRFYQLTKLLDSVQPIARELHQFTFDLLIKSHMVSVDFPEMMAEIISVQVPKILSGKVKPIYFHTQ

vitamin D receptor (VDR) [2] = assay: Mammalian two-hybrid assay hRad9 / VDR; type: cell-based; settings: PC-3 cells
Procedure: as §1

AR [3] = assay: In vitro GST pull-down assay GST-hRad9 / AR domains; type: binding, human
Procedure: The N-terminus (N), DBD, LBD, and DBD-LBD of AR were in vitro translated in the presence of [^35S] methionine using T7 polymerase and the coupled transcription/translation kit (Promega). pGEX-KG-hRad9 plasmids expressing GST-hRad9 fusion protein were transformed into BL21 (DE3) bacteria strain. 0.4 mM isopropyl-o-D-thiogalactopyranoside was added into LB medium containing transformed bacteria when the OD600 reached 0.5. Bacteria were further cultured in 30° C. for 3 h and lysed by 4 cycles of freezing-thawing in NETN buffer (20 mM Tris/pH 8.0, 0.5% NP-40, 100 mM NaCl, 6 mM MgCl2, 1 mM EDTA, 1 mM DTT, 8% glycerol, and 1 mM PMSF). The GST-hRad9 fusion proteins were purified with glutathione-beads in 4° C. Labeled proteins of AR mutants were incubated with equal amounts of GST-hRad9 in binding buffer (50 mM Hepes, 100 mM NaCl, 20 mM Tris-Cl/pH 8.0, 0.1% Tween 20, 10% glycerol, 1 mM dithiothreitol, 0.5 mM phenylmethysulfonyl fluoride, 1 mM NaF, and 0.4 mM sodium vanadate) with or without 10 nM DHT at 4° C. for 2 h. The beads were then washed with NETN buffer 4 times, resuspended in SDS-polyacrylamide loading buffer, and resolved on 10% SDS-polyacrylamide gel electrophoresis followed by autoradiograhy.

[4] = tested on: estrogen receptor α (ERα); assay: Mammalian two-hybrid assay hRad9 / ERα; type: cell-based; settings: PC-3 cells, presence of estrogen
Procedure: as §1, with “After transfection, cells were cultured in RPMI-1600 supplemented with 5% charcoal-stripped FCS in the presence or absence of 10 nM dihydrotestosterone (DHT) for 18 h.” left out

AR [5] = assay: AR transactivation MMTV-LUC assay in PC-3 cells with hRad9; type: cell-based, human; settings: MMTV-LUC, 10 nM DHT
Procedure: as §1
Target sequence in this assay (P10275 with tags, fused parts or gaps DEL79-80/DUP473-473): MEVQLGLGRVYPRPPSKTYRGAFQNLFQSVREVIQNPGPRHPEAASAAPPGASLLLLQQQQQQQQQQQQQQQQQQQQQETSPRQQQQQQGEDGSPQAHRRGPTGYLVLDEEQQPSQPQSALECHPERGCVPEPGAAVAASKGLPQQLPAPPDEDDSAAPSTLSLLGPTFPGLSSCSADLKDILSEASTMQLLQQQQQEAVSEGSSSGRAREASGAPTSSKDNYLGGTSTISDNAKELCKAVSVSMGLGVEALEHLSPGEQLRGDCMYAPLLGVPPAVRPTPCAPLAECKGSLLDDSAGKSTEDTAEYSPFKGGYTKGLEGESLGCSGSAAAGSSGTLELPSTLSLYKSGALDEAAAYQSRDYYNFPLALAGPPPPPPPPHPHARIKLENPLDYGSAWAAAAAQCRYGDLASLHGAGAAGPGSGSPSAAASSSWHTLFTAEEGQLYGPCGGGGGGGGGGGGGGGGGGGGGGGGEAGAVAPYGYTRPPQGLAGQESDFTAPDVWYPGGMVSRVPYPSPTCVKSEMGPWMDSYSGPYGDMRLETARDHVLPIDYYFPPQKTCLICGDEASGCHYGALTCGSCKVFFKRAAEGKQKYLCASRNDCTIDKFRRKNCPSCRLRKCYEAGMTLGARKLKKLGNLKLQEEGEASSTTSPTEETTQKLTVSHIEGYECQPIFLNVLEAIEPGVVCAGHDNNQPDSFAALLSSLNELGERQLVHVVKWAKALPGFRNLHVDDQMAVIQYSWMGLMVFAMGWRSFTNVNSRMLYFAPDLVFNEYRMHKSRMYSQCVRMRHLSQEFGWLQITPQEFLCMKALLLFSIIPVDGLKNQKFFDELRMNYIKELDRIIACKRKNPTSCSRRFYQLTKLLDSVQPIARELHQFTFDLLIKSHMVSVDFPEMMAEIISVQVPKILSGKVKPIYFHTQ

vitamin D receptor (VDR) [6] = assay: VDR transcriptional activity rCyp24-LUC in PC-3 cells with hRad9; type: cell-based; settings: cognate ligand
Procedure: as §1

AR (DBD-LBD, LBD, DBD) = assay: Yeast two-hybrid / liquid β-gal assay hRad9 fragment / AR domains; type: cell-based, human; settings: AH109 yeast cells
From the text: The DBD and LBD of AR cDNA was amplified and was cloned into the NdeI and BamHI site of pGBKT7 (Clontech). Yeast strain AH109 was transformed with the vector encoding GAL4 DBD-AR-DBD-LBD fusion and was mated with yeast strain Y187 pretransformed with the human ovary […] cDNA library (Clontech). The yeast clones were selected following the manufacturer's instruction. The positive clones were confirmed by clone lift assay and purified plasmids were retransformed into yeast strain AH109 with bait plasmids. The interaction specificity was further confirmed by liquid […] assay.

[7] = tested on: estrogen receptor α (ERα); assay: ERα transcriptional activity ERE-LUC in PC-3 cells with hRad9; type: cell-based; settings: cognate ligand
Procedure: as §1

[8] = tested on: PSA expression in LNCaP cells; assay: DHT-mediated induction of PSA protein in LNCaP cells with hRad9; type: cell-based, human; settings: 10 nM DHT
Procedure: as §1

Chain of vitamin D receptor (VDR) (P11473 whole entry, species assumed, the tested form may be a part): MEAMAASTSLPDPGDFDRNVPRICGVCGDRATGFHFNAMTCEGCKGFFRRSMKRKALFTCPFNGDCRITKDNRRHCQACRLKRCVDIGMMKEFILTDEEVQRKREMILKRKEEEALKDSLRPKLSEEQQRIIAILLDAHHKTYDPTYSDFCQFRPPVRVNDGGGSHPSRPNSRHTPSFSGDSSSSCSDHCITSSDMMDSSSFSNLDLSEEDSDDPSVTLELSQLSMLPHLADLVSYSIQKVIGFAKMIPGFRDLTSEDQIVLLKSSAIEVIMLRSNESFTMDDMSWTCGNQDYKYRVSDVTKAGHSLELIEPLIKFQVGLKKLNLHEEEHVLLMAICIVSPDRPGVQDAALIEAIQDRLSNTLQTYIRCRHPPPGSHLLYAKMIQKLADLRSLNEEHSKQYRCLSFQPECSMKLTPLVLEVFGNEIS
Chain of estrogen receptor α (ERα) (P03372 whole entry, species assumed): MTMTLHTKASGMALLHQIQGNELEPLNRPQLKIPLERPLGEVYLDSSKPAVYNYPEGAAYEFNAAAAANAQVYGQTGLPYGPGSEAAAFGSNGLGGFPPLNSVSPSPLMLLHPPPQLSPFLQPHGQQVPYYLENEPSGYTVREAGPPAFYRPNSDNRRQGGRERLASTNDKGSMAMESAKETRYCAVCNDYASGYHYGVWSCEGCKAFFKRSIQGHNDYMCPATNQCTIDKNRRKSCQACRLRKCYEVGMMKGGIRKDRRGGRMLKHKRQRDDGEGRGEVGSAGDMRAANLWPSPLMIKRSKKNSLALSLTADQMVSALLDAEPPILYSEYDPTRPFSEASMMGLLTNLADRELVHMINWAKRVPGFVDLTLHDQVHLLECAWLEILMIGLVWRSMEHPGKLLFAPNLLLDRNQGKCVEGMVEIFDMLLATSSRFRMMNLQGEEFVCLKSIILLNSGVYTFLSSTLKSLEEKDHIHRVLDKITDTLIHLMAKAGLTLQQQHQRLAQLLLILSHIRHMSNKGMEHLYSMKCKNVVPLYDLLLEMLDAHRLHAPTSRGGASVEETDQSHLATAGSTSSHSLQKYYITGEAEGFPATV
Chain of AR (DBD-LBD, LBD, DBD) (P10275 558-624): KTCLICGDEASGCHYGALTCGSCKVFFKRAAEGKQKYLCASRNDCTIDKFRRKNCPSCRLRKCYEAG
Chain of AR N/C interaction (P10275 557-920): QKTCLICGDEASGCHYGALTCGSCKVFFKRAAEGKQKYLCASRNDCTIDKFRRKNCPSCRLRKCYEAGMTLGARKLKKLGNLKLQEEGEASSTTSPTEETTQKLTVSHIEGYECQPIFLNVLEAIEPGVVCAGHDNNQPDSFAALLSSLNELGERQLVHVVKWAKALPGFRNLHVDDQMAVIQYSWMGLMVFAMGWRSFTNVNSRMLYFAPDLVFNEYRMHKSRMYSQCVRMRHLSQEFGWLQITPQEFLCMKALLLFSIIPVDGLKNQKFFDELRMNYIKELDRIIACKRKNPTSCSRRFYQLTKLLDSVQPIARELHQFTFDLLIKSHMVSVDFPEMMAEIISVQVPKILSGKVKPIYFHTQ

Row | Substance | interaction between AR N- and C-terminus (AR N/C interaction) | DHT-dependent interaction with VP16-AR (AR [1]) [fold] | interaction with VDR (vitamin D receptor (VDR) [2]) | interaction with AR LBD and AR-DBD-LBD (AR [3]) | interaction with N-terminus of AR (aa. 1-556) and DBD alone (AR [3]) | interaction with ERα [4] | transcriptional activity of AR (AR [5]) | VDR transcriptional activity (vitamin D receptor (VDR) [6]) | interaction with GAL4-AR-DBD (AR (DBD-LBD, LBD, DBD)) | ER transcriptional activity [7] | DHT-mediated induction of PSA [8]
1 | HPTHSSRLWELLMEATPTM [GAL4-D30 peptide, reference compound] | blockage | 350 | – | – | – | – | – | – | – | – | –
2 | hRad9: human checkpoint protein of the Rad family (SEQ ID NO:7), corepressor of AR | – | – | no interaction | interacted specifically | Neither the N-terminus of AR (aa. 1-556) nor the DBD alone adhered | no interaction | decreased | little inhibitory effect | did not interact | little inhibitory effect | potently inhibited
